Experimental data reported in ChEMBL document CHEMBL3045333, “Asymmetric aza-Michael additions of 4-nitrophthalimide to nitroalkenes and preliminary study of the products for herbicidal activities” (2013).

What was measured:
Format in all cases: functional
Echinochloa crus-galli [1] = assay: Herbicidal activity against Echinochloa crus-galli (barnyard grass) assessed as reduction of radical growth in dark conditions at 100 ug/ml treated twice; conditions: for inhibition of growth at 100 µg/mL: Echinochloa crus-galli, read-out: GI
Echinochloa crus-galli [2] = assay: Herbicidal activity against Echinochloa crus-galli (barnyard grass) assessed as reduction of radical growth in dark conditions at 10 ug/ml treated twice; conditions: for inhibition of growth at 10 µg/mL: Echinochloa crus-galli, read-out: GI
Echinochloa crus-galli [3] = assay: Herbicidal activity against Echinochloa crus-galli (barnyard grass) assessed as reduction of seedling height growth in light conditions at 10 ug/ml treated twice; conditions: read-out: GI
Echinochloa crus-galli [4] = assay: Herbicidal activity against Echinochloa crus-galli (barnyard grass) assessed as reduction of seedling height growth in light conditions at 100 ug/ml treated twice; conditions: for inhibition of growth at 100 µg/mL: Echinochloa crus-galli, read-out: GI

Structure (SMILES): O=C1c2ccc([N+](=O)[O-])cc2C(=O)C1C(C[N+](=O)[O-])c1ccc(Cl)cc1Cl (centres undefined)
- inhibition of growth at 100 µg/mL (Echinochloa crus-galli [1]): 10%
- inhibition of growth at 10 µg/mL (Echinochloa crus-galli [2]): 5%
- inhibition of growth at 10 µg/mL (Echinochloa crus-galli [3]): 0%
- inhibition of growth at 100 µg/mL (Echinochloa crus-galli [4]): 0%

Structure (SMILES): O=C1c2ccc([N+](=O)[O-])cc2C(=O)C1C(C[N+](=O)[O-])c1ccc(Cl)cc1 (racemic)
- inhibition of growth at 100 µg/mL (Echinochloa crus-galli [1]): 10%
- growth inhibition (GI) (Echinochloa crus-galli [2]): 5%
- growth inhibition (GI) (Echinochloa crus-galli [4]): 55.5%

Structure (SMILES): O=C1c2ccc([N+](=O)[O-])cc2C(=O)C1C(C[N+](=O)[O-])c1ccccc1Cl (centres undefined)
- inhibition of growth at 100 µg/mL (Echinochloa crus-galli [1]): 59.6%
- inhibition of growth at 10 µg/mL (Echinochloa crus-galli [2]): 0%
- inhibition of growth at 10 µg/mL (Echinochloa crus-galli [3]): 0%
- inhibition of growth at 100 µg/mL (Echinochloa crus-galli [4]): 93.2%

Structure (SMILES): O=C1c2ccc([N+](=O)[O-])cc2C(=O)C1C(C[N+](=O)[O-])c1ccc(F)cc1 (racemic)
- inhibition of growth at 100 µg/mL (Echinochloa crus-galli [1]): 0%
- inhibition of growth at 10 µg/mL (Echinochloa crus-galli [2]): 0%
- growth inhibition (GI) (Echinochloa crus-galli [4]): 64.1%

Structure (SMILES): O=C1c2ccc([N+](=O)[O-])cc2C(=O)C1C(C[N+](=O)[O-])c1cccc(Cl)c1 (centres undefined)
- inhibition of growth at 100 µg/mL (Echinochloa crus-galli [1]): 0%
- inhibition of growth at 10 µg/mL (Echinochloa crus-galli [2]): 0%
- inhibition of growth at 10 µg/mL (Echinochloa crus-galli [3]): 0%
- inhibition of growth at 100 µg/mL (Echinochloa crus-galli [4]): 0%

Structure (SMILES): O=C1c2ccc([N+](=O)[O-])cc2C(=O)C1C(C[N+](=O)[O-])c1ccc(F)cc1 (stereo in doubt; 4bd)
- inhibition of growth at 10 µg/mL (Echinochloa crus-galli [3]): 0%
- growth inhibition (GI) (Echinochloa crus-galli [4]): 22%

Structure (SMILES): O=C1c2ccc([N+](=O)[O-])cc2C(=O)C1C(C[N+](=O)[O-])c1ccc(Cl)cc1 (stereo in doubt; 4be)
- growth inhibition (GI) (Echinochloa crus-galli [1]): 5%
- growth inhibition (GI) (Echinochloa crus-galli [2]): 0%
- inhibition of growth at 10 µg/mL (Echinochloa crus-galli [3]): 0%
- growth inhibition (GI) (Echinochloa crus-galli [4]): 9.7%
